Experimental data reported in patent US7811797B2, “α-isomaltosylglucosaccharide-forming enzyme, process and uses of the same” (Kabushiki Kaisha Hayashibara Seibutsu Kagaku Kenkyujo, priority 2000, dated 2010).

Experiments:
[1] = tested on: α-isomaltosylglucosaccharide-forming enzyme; assay: Action on saccharides (substrates), Enzyme of Strain C9; format: biochemical, Bacillus globisporus C9; parameters: key: −: it showed no change; +: it showed a slight reduction of the color spot of the substrate and the formation of other reaction product; ++: it showed a high reduction of the color spot of the substrate and the formation of other reaction product; +++: it showed a substantial disappearance of the substrate spot and the formation of other reaction product; settings: two units/g substrate, substrate 2% (w/v), 30° C., pH 6.0, 24 hours, TLC
Experimental: (§1) It was tested whether saccharides can be used as substrates for the α-isomaltosylglucosaccharide-forming enzyme. For the purpose, a solution of maltose, maltotriose, maltotetraose, maltopentaose, maltohexaose, maltoheptaose, isomaltose, isomaltotriose, panose, isopanose, trehalose, kojibiose, nigerose, neotrehalose, cellobiose, gentibiose, maltitol, maltotriitol, lactose, sucrose, erlose, selaginose, maltosyl glucoside, or isomaltosyl glucoside was prepared.
(§2) To each of the above solutions was added two units/g substrate of a purified specimen of α-isomaltosylglucosaccharide-forming enzyme from either Bacillus globisporus C9 obtained by the method in Experiment 4-2, Bacillus globisporus C11 obtained by the method in Experiment 7-2, Bacillus globisporus N75 obtained by the method in Experiment 11-2, or Arthrobacter globiformis A19 obtained by the method in Experiment 15-2, and the resulting each solution was adjusted to give a substrate concentration of 2% (w/v) and incubated at 30° C. and pH 6.0, except for using pH 8.4 for the enzyme from Arthrobacter globiformis A19, for 24 hours. The enzyme solutions before and after the enzymatic reactions were respectively analyzed on TLC disclosed in Experiment 1 to confirm whether the enzymes acted on these substrates.

[2] = tested on: α-isomaltosylglucosaccharide-forming enzyme; assay: Action on saccharides (substrates), Enzyme of Strain C11; format: biochemical, Bacillus globisporus C11; parameters: key: −: it showed no change; +: it showed a slight reduction of the color spot of the substrate and the formation of other reaction product; ++: it showed a high reduction of the color spot of the substrate and the formation of other reaction product; +++: it showed a substantial disappearance of the substrate spot and the formation of other reaction product; settings: two units/g substrate, substrate 2% (w/v), 30° C., pH 6.0, 24 hours, TLC
Experimental: as §1, §2

[3] = tested on: α-isomaltosylglucosaccharide-forming enzyme; assay: Action on saccharides (substrates), Enzyme of Strain N75; format: biochemical, Bacillus globisporus N75; parameters: key: −: it showed no change; +: it showed a slight reduction of the color spot of the substrate and the formation of other reaction product; ++: it showed a high reduction of the color spot of the substrate and the formation of other reaction product; +++: it showed a substantial disappearance of the substrate spot and the formation of other reaction product; settings: two units/g substrate, substrate 2% (w/v), 30° C., pH 6.0, 24 hours, TLC
Experimental: as §1, §2

[4] = tested on: α-isomaltosylglucosaccharide-forming enzyme; assay: Action on saccharides (substrates), Enzyme of Strain A19; format: biochemical, Arthrobacter globiformis A19; parameters: key: −: it showed no change; +: it showed a slight reduction of the color spot of the substrate and the formation of other reaction product; ++: it showed a high reduction of the color spot of the substrate and the formation of other reaction product; +++: it showed a substantial disappearance of the substrate spot and the formation of other reaction product; settings: two units/g substrate, substrate 2% (w/v), 30° C., pH 8.4, 24 hours, TLC
Experimental: as §1, §2

[5] = tested on: α-isomaltosylglucosaccharide-forming enzyme; assay: Transfer-acceptor specificity, Enzyme of Strain C9; format: biochemical, Bacillus globisporus C9; settings: acceptor 1.6%, PINE-DEX #100 donor 4%, one unit/g donor, 30° C., pH 6.0, 24 hours
Experimental: (§3) Using different saccharides, it was tested whether the saccharides were used as transferring-acceptors for the α-isomaltosylglucosaccharide-forming enzyme of the present invention. A solution of D-glucose, D-xylose, L-xylose, D-galactose, D-fructose, D-mannose, D-arabinose, D-fucose, D-psicose, L-sorbose, L-rhamnose, methyl-α-glucopyranoside, methyl-β-glucopyranoside, N-acetyl-glucosamine, sorbitol, trehalose, isomaltose, isomaltotriose, cellobiose, gentibiose, glycerol, maltitol, lactose, sucrose, α-cyclodextrin, β-cyclodextrin, γ-cyclodextrin, or L-ascorbic acid was prepared.
(§4) To each solution with a saccharide concentration of 1.6% was added “PINE-DEX #100”, a partial starch hydrolysate, as a saccharide donor, to give a concentration of 4%, and admixed with one unit/g saccharide donor, d.s.b., of either of purified specimens of α-isomaltosylglucosaccharide-forming enzyme from Bacillus globisporus C9 obtained by the method in Experiment 4-2, Bacillus globisporus C11 obtained by the method in Experiment 7-2, Bacillus globisporus N75 obtained by the method in Experiment 11-2, or Arthrobacter globiformis A19 obtained by the method in Experiment 15-2, and incubated at 30° C. and pH 6.0, except that pH 8.4 was used for the enzyme from Arthrobacter globiformis A19, for 24 hours. The reaction mixtures of the post-enzymatic reactions were analyzed on gas chromatography (abbreviated as “GLC” hereinafter) for monosaccharides and disaccharides as acceptors, and on HPLC for trisaccharides as acceptors to confirm whether these saccharides could be used as their transfer acceptors. In the case of performing GLC, the following apparatuses and conditions are used: GLC apparatus, “GC-16A” commercialized by Shimadzu Corporation, Tokyo, Japan; column, a stainless-steel column, 3 mm in diameter and 2 m in length, packed with 2% “SILICONE OV-17/[…]”, commercialized by GL Sciences Inc., Tokyo, Japan; carrier gas, nitrogen gas at a flow rate of 40 ml/min under temperature conditions of increasing from 160° C. to 320° C. at an increasing temperature rate of 7.5° C./min; and detection, a hydrogen flame ionization detector. In the case of HPLC analysis, the apparatuses and conditions used are: HPLC apparatus, “CCPD” commercialized by Tosoh Corporation, Tokyo, Japan; column, “ODS-AQ-303” commercialized by YMC Co., Ltd., Tokyo, Japan; eluent, water at a flow rate of 0.5 ml/min; and detection, a differential refractometer.

[6] = tested on: α-isomaltosylglucosaccharide-forming enzyme; assay: Transfer-acceptor specificity, Enzyme of Strain C11; format: biochemical, Bacillus globisporus C11; settings: acceptor 1.6%, PINE-DEX #100 donor 4%, one unit/g donor, 30° C., pH 6.0, 24 hours
Experimental: as §3, §4

[7] = tested on: α-isomaltosylglucosaccharide-forming enzyme; assay: Transfer-acceptor specificity, Enzyme of Strain N75; format: biochemical, Bacillus globisporus N75; settings: acceptor 1.6%, PINE-DEX #100 donor 4%, one unit/g donor, 30° C., pH 6.0, 24 hours
Experimental: as §3, §4

[8] = tested on: α-isomaltosylglucosaccharide-forming enzyme; assay: Transfer-acceptor specificity, Enzyme of Strain A19; format: biochemical, Arthrobacter globiformis A19; settings: acceptor 1.6%, PINE-DEX #100 donor 4%, one unit/g donor, 30° C., pH 8.4, 24 hours
Experimental: as §3, §4

Enzymatic action, Enzyme of Strain C9 [1]	Enzymatic action, Enzyme of Strain C11 [2]	Enzymatic action, Enzyme of Strain N75 [3]	Enzymatic action, Enzyme of Strain A19 [4]	Compound	Product of transferring reaction, Enzyme of Strain C9 [5]	Product of transferring reaction, Enzyme of Strain C11 [6]	Product of transferring reaction, Enzyme of Strain N75 [7]	Product of transferring reaction, Enzyme of Stain A19 [8]
−	−	−	−	OC[C@H]1O[C@@H](OC[C@H]2OC(O)[C@H](O)[C@@H](O)[C@@H]2O)[C@H](O)[C@@H](O)[C@@H]1O (stereo partly drawn) [Gentibiose]	++ (a saccharide-transferred product was detected in an amount over ten percent through transfer reaction to acceptor)	++ (a saccharide-transferred product was detected in an amount over ten percent through transfer reaction to acceptor)	++ (a saccharide-transferred product was detected in an amount over ten percent through transfer reaction to acceptor)	+ (a saccharide-transferred product was detected in an amount over one percent but less than ten percent through transfer reaction to acceptor)
−	−	−	−	OC[C@H]1O[C@H](OC[C@H]2OC(O)[C@H](O)[C@@H](O)[C@@H]2O)[C@H](O)[C@@H](O)[C@@H]1O (stereo partly drawn) [Isomaltose]	++ (a saccharide-transferred product was detected in an amount over ten percent through transfer reaction to acceptor)	++ (a saccharide-transferred product was detected in an amount over ten percent through transfer reaction to acceptor)	++ (a saccharide-transferred product was detected in an amount over ten percent through transfer reaction to acceptor)	+ (a saccharide-transferred product was detected in an amount over one percent but less than ten percent through transfer reaction to acceptor)
−	−	−	−	O=C[C@H](O)[C@@H](O)[C@H](O[C@@H]1O[C@H](CO)[C@@H](O)[C@H](O)[C@H]1O)[C@H](O)CO [Cellobiose]	++ (a saccharide-transferred product was detected in an amount over ten percent through transfer reaction to acceptor)	++ (a saccharide-transferred product was detected in an amount over ten percent through transfer reaction to acceptor)	++ (a saccharide-transferred product was detected in an amount over ten percent through transfer reaction to acceptor)	++ (a saccharide-transferred product was detected in an amount over ten percent through transfer reaction to acceptor)
−	−	−	−	OC[C@H]1O[C@@](CO)(O[C@H]2O[C@H](CO)[C@@H](O)[C@H](O)[C@H]2O)[C@@H](O)[C@@H]1O [Sucrose]	++ (a saccharide-transferred product was detected in an amount over ten percent through transfer reaction to acceptor)	++ (a saccharide-transferred product was detected in an amount over ten percent through transfer reaction to acceptor)	++ (a saccharide-transferred product was detected in an amount over ten percent through transfer reaction to acceptor)	++ (a saccharide-transferred product was detected in an amount over ten percent through transfer reaction to acceptor)
−	−	−	−	OC[C@H]1O[C@H](O[C@H]2O[C@H](CO)[C@@H](O)[C@H](O)[C@H]2O)[C@H](O)[C@@H](O)[C@@H]1O [Trehalose]	++ (a saccharide-transferred product was detected in an amount over ten percent through transfer reaction to acceptor)	++ (a saccharide-transferred product was detected in an amount over ten percent through transfer reaction to acceptor)	++ (a saccharide-transferred product was detected in an amount over ten percent through transfer reaction to acceptor)	++ (a saccharide-transferred product was detected in an amount over ten percent through transfer reaction to acceptor)
−	−	−	−	OC[C@H]1O[C@@H](O[C@H]2[C@H](O)[C@@H](O)C(O)O[C@@H]2CO)[C@H](O)[C@@H](O)[C@H]1O (stereo partly drawn) [Lactose]	++ (a saccharide-transferred product was detected in an amount over ten percent through transfer reaction to acceptor)	++ (a saccharide-transferred product was detected in an amount over ten percent through transfer reaction to acceptor)	++ (a saccharide-transferred product was detected in an amount over ten percent through transfer reaction to acceptor)	++ (a saccharide-transferred product was detected in an amount over ten percent through transfer reaction to acceptor)
